Legend:
[1] = test system: large intestine of a mouse (normal mucosal tissue); assay: vital staining of normal mouse large intestine, imaged with confocal or multiphoton laser microscope
Protocol: (§1) 100 mg of curcumin (Tokyo Kasei, cat. #C2302, purity 97.0%) was suspended in 5 mL of ethanol, and further diluted 10-fold with ethanol. It was mixed with the same amount of glycerin, and further diluted 10-fold with glycerin. The mixture was mixed with the same amount of purified water to obtain a staining solution of curcumin. As for Red #106, its staining solution is obtained by dissolving the powder in saline to the concentration of 1 mg/mL.
(§2) C57BL/6N mice purchased from Japan SLC, Inc. were used in the tests. All tests were performed on male, 8-week-old mice weighing 20˜25 grams.
(§3) A multiphoton laser microscope of FVMPE-RS (Olympus) was used with the irradiation wavelength of 800 nm. Laser irradiation was performed at 5.8˜48.2% of its full power output. A confocal laser microscope of FV1000 (Olympus) was used with the irradiation wavelength of 488 nm and 594 nm, wherein the laser irradiation at 488 nm was performed at […] of its full power output, and the laser irradiation at 594 nm was performed at 13˜13.5% of its full power output. The direction of irradiation and staining from serosal or luminal side are described in the figures.

[2] = test system: large intestine (cancer tumor site) of a colon cancer mouse; assay: vital staining of cancer tumor site in large intestine of colon cancer mouse, imaged with laser microscope; type: in vivo
Protocol: as §1, §2
Model mice with colon cancer were prepared by intraperitoneally administering 10 mg/kg of azoxymethane (AOM) dissolved in saline 4 times at weekly intervals to C57BL/6N mice.
as §3

[3] = five-layer structure of normal large intestine
[4] = stained from serosa side, confocal laser microscope, FIG. 5c
[5] = stained and photographed from luminal side, FIG. 11A and 11B

SMILES	staining of network of capillaries surrounding the glandular structures of epithelial and glandular layers (1) [1, 3]	staining of the smooth muscle in muscle layer (4) [1, 3]	staining of the smooth muscle in muscularis mucosae (2) [1, 3]	staining of the wall of a thick blood vessel inside muscle layer [1, 3]	staining of Auerbach's plexus inside muscle layer [1, 3]	staining of glandular cells in epithelial and glandular layers (1) [1, 3]	staining of nerve fibers of Auerbach's plexus [1, 4]	staining of perikaryon of Auerbach's plexus [1, 4]	staining of cytoplasm of invaded cancer cells inside smooth muscle layer relative to surrounding tissues ([2]; stained and observed from serosal side, confocal laser microscope, FIG. 10A)	staining of cytoplasm of cancer cells [2, 5]	staining of nuclei of cancer cells [2, 5]
CCN(CC)c1ccc2c(-c3ccc(S(=O)(=O)[O-])cc3S(=O)(=O)[O-])c3ccc(=[N+](CC)CC)cc-3oc2c1.[Na+] [Red #106]	severely positive	mildly positive	mildly positive	severely positive							
COc1cc(/C=C/C(=O)CC(=O)/C=C/c2ccc(O)c(OC)c2)ccc1O [curcumin]		mildly positive	severely positive		severely positive	severely positive	lightly	darkly	darker than surrounding tissues	stained severely	stained negatively
